Test results: patent US11572508B2, “Non-linear surfactant” (Powdermet, Inc., priority 2018, dated 2023)

Tests used:
[1] = emulsion suspension of liquid epoxy resin: particle size dispersion, suspension stability, pumping through sand packs; format: physicochemical; settings: 71 mM surfactant
Description: The suspension was maintained for up to 1 month unchanged.

[2] = pH-controlled solubility and rock-face adsorption of isoelectric surfactant; format: physicochemical
Description: An example of an isoelectric non-linear molecular surfactant is a modified rigid ring structure with a zwitterionic to control solubility and surface activity. Molecular surfactant is defined as a group of atoms bonded together, representing the smallest fundamental unit of a chemical compound. In one non-limiting descriptive example, cholic acid is bound to a zwitterionic bi-functional compound, such as threonine. One (1) equivalent of cholic acid is suspended in an aprotic polar solvent, tetrahydrofuran with the addition of a base catalysis, pyridine. The primed rigid ring moiety structure is titrated with one (1) to three (3) equivalents of a zwitterionic coupling agent, and/or silane threonine, in an aprotic polar solvent. Purified product has applications in surface modification chemistry across materials and production markets. One non-limiting identified application is the oil and gas industry's unconventional resource collections through improving production recovery by controlling the rock wettability and reducing the translation motion energy through rock porosity and fractures. The zwitterionic nature of the isoelectric non-linear molecular surfactant enables the production recovery increase by allowing the production team to control when the surfactant becomes insoluble and favors surface adsorption to the formation's porous and fracture surface. […]

SMILES	time suspension was maintained unchanged ([1]; 23 wt. % solids epoxy resin suspension)	particle size dispersion D50 of nanoemulsion ([1]; 23 wt. % solids suspension of bisphenol A/epichlorohydrin-derived liquid epoxy resin) [nm]	pH at which surfactant is triggered to adsorb to the rock face ([2]; formation rock face)	pH at which surfactant is soluble in pumping solutions ([2]; pumping solutions)
C[C@H](CCC(=O)O)[C@H]1CC[C@H]2[C@@H]3[C@H](O)C[C@@H]4C[C@H](O)CC[C@]4(C)[C@H]3C[C@H](O)[C@]12C [3α,7α,12α-trihydroxy-5β-cholan-24-oic acid]	up to 1 month	450	–	–
CC(O)C(NC(=O)CCC(C)C1CCC2C3C(O)CC4CC(O)CCC4(C)C3CC(O)C12C)C(=O)O (stereo not shown)	–	–	5.6	below 5.5
